In ChEMBL document CHEMBL1139070, “Synthesis and characterization of poly (amino ester) for slow biodegradable gene delivery vector” (Bioorg Med Chem, 2007):

Tests used:
[1] = Cytotoxicity against HEPG2 cells assessed as cell viability at 200 ug/ml by MTT method; type: cell-based; conditions: human, read-out: Activity
[2] = Cytotoxicity against C2C12 cells assessed as cell viability at 200 ug/ml by MTT method; type: cell-based, Homo sapiens; conditions: read-out: Activity
[3] = Cytotoxicity against HEPG2 cells assessed as cell viability at 200 ug/ml after 24 hrs by MTT method; type: cell-based; conditions: human, read-out: Activity
[4] = Cytotoxicity against C2C12 cells assessed as cell viability at 200 ug/ml after 24 hrs by MTT method; type: cell-based; conditions: read-out: Activity
C2C12 = assay: Cytotoxicity against C2C12 cells assessed as cell viability upto 30 ug/ml after 24 hrs by MTT method; type: cell-based; conditions: c2c12, 24 h

CCCCCC(=O)OCCN(CCOC(=O)CCN(CCC(=O)OC)CCN1CCC(=O)OCCCN2CCOC(=O)CCN(CCC(=O)OCCN(CCOC(=O)CCCCC)C(COC(=O)CCCCC)(COC(=O)CCCCC)COC(=O)CCN3CCC(=O)OCC2(CO)COC(=O)CCN(CCN(CCC(=O)OC)CCC(=O)OCC(COC(=O)CCCCC)(COC(=O)CCCCC)N(CCOC(=O)CCCCC)CCOC(=O)CCCCC)CCC(=O)OCCN(C(CO)(COC(=O)CCCCC)COC(=O)CCCCC)CCOC(=O)CCN(CCC(=O)OCC(COC(=O)CCCCC)(COC(=O)CCCCC)N(CCOC(=O)CCCCC)CCOC(=O)CCCCC)CC3)CCN(CCC(=O)OC)CC(=O)OCCN(CCOC(=O)CCCCC)C(CO)(COC(=O)CCCCC)COC(=O)CC1)C(CO)(COC(=O)CCCCC)COC(=O)CCCCC (stereo not given)
viability at 200 ug/ml [1]: 82% | viability at 200 ug/ml [2]: 73% | viability at 24 h, 200 ug/ml [3]: 87% | viability at 24 h, 200 ug/ml [4]: 85% | Activity (C2C12): Non-toxic
